The target in experiment [1] is T1, aggregated Aβ (Aβ1-42) injected into amygdaloid nucleus (Homo sapiens, UniProt P05067).
T1 construct: Aβ1-42 (manufactured by Wako) was dissolved in phosphate buffer (pH 7.4); purchased Wako
Kind of experiment: Confirmation of imaging of amyloid in brain (ex vivo autoradiogram, Aβ1-42). Also noted: species or system male Wistar rat. The settings on record: brain slice 60 minutes after tail vein injection. As to the method:
The following experiment was carried out in order to examine whether amyloid in brain can be imaged by the compound of the present invention.
(1) Aβ1-42 (manufactured by Wako) was dissolved in phosphate buffer (pH 7.4) and shaken at 37° C. for 72 hours, to obtain a 1 mg/mL suspension of aggregated Aβ (hereinafter referred to as amyloid suspension in the Examples).
(2) 2.5 μL (corresponding to […]) of the amyloid suspension was injected into an amygdaloid nucleus on one side of a male Wistar rat (7-week old). As a control, 2.5 μL of a phosphate buffered physiological saline solution (pH 7.4) was injected into an amygdaloid nucleus on the other side of the rat. The rats were examined 1 day after the injection of the amyloid suspension and the phosphate buffered physiological saline solution (pH 7.4).
(3) Compound 1 was dissolved in a 10 mg/mL ascorbic acid-containing physiological saline solution to obtain a sample solution (22 MBq/mL in radioactivity concentration in the sample solution). This solution was injected under thiopental anesthesia into the rat through the tail vein (dosage: 0.5 mL, dosed radioactivity: 11-13 MBq equivalent).
(4) Brain was removed 60 minutes after the injection to prepare a brain slice of 10 μm in thickness with a microtome (type: CM3050S, manufactured by LEICA). The brain slice was exposed to an imaging plate for 20 hours, and then image analysis was carried out by use of a Bio-imaging Analyzer (type: BAS-2500; manufactured by FUJIFILM Corporation).
(5) After the completion of the image analysis using the Bio-imaging Analyzer, […]
Thus, it was confirmed that amyloid was deposited on the slice (FIG. 6b).
The same procedures as in Example 12 were performed except using a solution of Compound 2 in a 10 mg/mL ascorbic acid as a sample solution (the radioactive concentration of the sample solution was 25 MBq/mL).
(1) Aβ1-42 (manufactured by Wako) was dissolved in phosphate buffer (pH 7.4) and shaken at 37° C. for 72 hours, to obtain 1 mg/mL of a suspension of aggregated Aβ (hereinafter referred to as amyloid suspension in the Examples).
(3) A sample solution (30 MBq/mL in radioactivity concentration, Example 24) in which Compound 4 was dissolved in a 10 mg/mL ascorbic acid-containing physiological saline solution and a sample solution (30 MBq/mL in radioactivity concentration, Example 25) in which Compound 6 was dissolved in a 10 mg/mL ascorbic acid-containing physiological saline solution were prepared. This solution was injected under thiopental anesthesia into the rat through the tail vein (dosage: 0.5 mL, dosed radioactivity: 11-15 MBq equivalent).
Thus, it was confirmed that amyloid was deposited on the slice (FIG. 12 and FIG. 13).

For experiment [2], the target named is T2, β2-microglobulin amyloid (Homo sapiens, UniProt P61769).
T2 construct: purchased Oriental Yeast Co., ltd
Kind of experiment: In vitro binding of labeled compound to β2-m-amyloid (glass fiber filter). Particulars: β2-m-amyloid 0.8 μg/mL, 22° C., 3 hours. As to the method:
β2-microglobulin with cross -sheet structure was prepared by the following procedures (5) and (6) which was the method described in the known literature (Ohhashi, Y. et al., Journal of Biological Chemistry. 280, p. 32843-32848 (2005)) to which a little modification was made. […]
(8) A solution of Compound 1 which was synthesized by the method above in Example 3 was prepared (radioactivity of 500 MBq/mL), and diluted with a 0.1% bovine serum albumin-containing phosphate buffer (pH 7.4) to prepare a solution of 1.2-112.9 pM in terms of the total amount of 2-[4′-(2″-hydroxyethoxy)phenyl]-6-iodoimidazo[1,2-a]pyridine. […]
(11) The glass fiber filter used for the filtration of the mixture was washed with a 0.1% bovine serum albumin-containing phosphate buffer (0.2 mL×5), and radioactivity of the glass fiber filter was measured with an autowell gamma system (manufactured by Aloka, Type: ARC-7001).
(12) From the measurement results of (11), relation between the amount of Compound 1 binding to amyloid and addition amount of amyloid was evaluated. For a non-specific binding, it was determined from a sample in which no amyloid suspension was added above in (9) (Example 36). […]

From patent US20100249419A1, “UTILIZATION OF NOVEL COMPOUNDS WITH AMYLOID AFFINITY AND METHOD OF PRODUCING THE SAME” (NIHON MEDI-PHYSICS CO., LTD., priority 2007, published 2010) come the findings set out here.

T1 sequence (P05067 672-713): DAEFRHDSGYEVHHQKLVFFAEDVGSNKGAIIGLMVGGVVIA
T2 sequence (P61769 21-119): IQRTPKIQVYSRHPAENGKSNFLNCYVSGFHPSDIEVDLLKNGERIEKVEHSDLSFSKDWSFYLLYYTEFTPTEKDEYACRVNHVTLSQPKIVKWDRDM

As to “2-(4′-ethoxyphenyl)-6-[^123I]iodoimidazo[1,2-a]pyridine [Compound 2]”, the “Accumulation of radioactivity in amygdaloid nucleus on the amyloid-injected side” value (“Accumulation of radioactivity” below) in experiment [1] was “marked accumulation of radioactivity”.
As to “2-[4′-(2″-hydroxyethoxy)phenyl]-6-[^123I]iodoimidazo[1,2-a]pyridine [Compound 1]”, the “Accumulation of radioactivity” value in experiment [1] is “marked accumulation of radioactivity”. Besides, in experiment [2], the “Radioactivity of the glass fiber filter versus amyloid non-added group” value is recorded as “all high compared to the group without amyloid suspension”.
Turning to “2-[4′-(3″-hydroxypropoxy)phenyl]-6-[^123I]iodoimidazo[1,2-a]pyridine [Compound 6]”, in experiment [1], the “Accumulation of radioactivity” value is reported as “marked accumulation of radioactivity”. Moreover, the “Radioactivity of the glass fiber filter versus amyloid non-added group” value in experiment [2] is listed as “all high compared to the group without amyloid suspension”.
